Legend:
[1] = test system: normal NK cells expanded with K562-aAPC; experiment: drug sensitivity score (DSS) (DSS units); higher = more sensitive; extreme values may be limits of the assay; settings: 72 h; IL-2 2.5 ng/mL
Protocol: (§1)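 Drug sensitivity and resistance testing on K562-aAPC-expanded normal NK cells: 5 concentrations (10-fold steps over a 10,000-fold range), 72 h at 37 °C, viability by CellTiter-Glo normalised to DMSO and benzethonium chloride controls; DSS from the fitted curve.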

[2] = test system: SNK-6 (IL-2 2.5 ng/mL); experiment: percent inhibition of viability; higher = more inhibition; settings: 72 h
[3] = test system: normal primary NK cells, pool 3 (3 donors) (IL-2 2.5 ng/mL); experiment: as above; settings: 72 h
[4] = test system: IMC-1 (IL-2 20 ng/mL); experiment: as above; settings: 72 h
[5] = test system: KHYG-1 (IL-2 2.5 ng/mL); experiment: as above; settings: 72 h
[6] = test system: DERL-7 (IL-2 2.5 ng/mL); experiment: as above; settings: 72 h
[7] = test system: normal primary NK cells, pool 1 (3 donors) (IL-2 2.5 ng/mL); experiment: as above; settings: 72 h
[8] = test system: NKL (IL-2 2.5 ng/mL); experiment: as above; settings: 72 h
[9] = test system: normal primary NK cells, pool 1 (3 donors), resting (IL-2 0 ng/mL); experiment: as above; settings: 72 h
[10] = test system: YT (IL-2 2.5 ng/mL); experiment: as above; settings: 72 h
[11] = test system: normal primary NK cells, pool 2 (3 donors) (IL-2 2.5 ng/mL); experiment: as above; settings: 72 h
[12] = test system: KAI3 (IL-2 2.5 ng/mL); experiment: as above; settings: 72 h
[13] = test system: NK-YS (IL-2 2.5 ng/mL); experiment: as above; settings: 72 h
[14] = test system: NK-92 (IL-2 2.5 ng/mL); experiment: as above; settings: 72 h
[15] = test system: normal NK cells expanded with K562-aAPC; experiment: as above; settings: 72 h, IL-2 2.5 ng/mL
Protocol: as §1

[16] = test system: SNK-6 (IL-2 2.5 ng/mL); experiment: drug sensitivity score (DSS) (DSS units); higher = more sensitive; extreme values may be limits of the assay; settings: 72 h
[17] = test system: normal primary NK cells, pool 3 (3 donors) (IL-2 2.5 ng/mL); experiment: as above; settings: 72 h
[18] = test system: IMC-1 (IL-2 20 ng/mL); experiment: as above; settings: 72 h
[19] = test system: KHYG-1 (IL-2 2.5 ng/mL); experiment: as above; settings: 72 h
[20] = test system: DERL-7 (IL-2 2.5 ng/mL); experiment: as above; settings: 72 h
[21] = test system: normal primary NK cells, pool 1 (3 donors) (IL-2 2.5 ng/mL); experiment: as above; settings: 72 h
[22] = test system: NKL (IL-2 2.5 ng/mL); experiment: as above; settings: 72 h
[23] = test system: normal primary NK cells, pool 1 (3 donors), resting (IL-2 0 ng/mL); experiment: as above; settings: 72 h
[24] = test system: YT (IL-2 2.5 ng/mL); experiment: as above; settings: 72 h
[25] = test system: normal primary NK cells, pool 2 (3 donors) (IL-2 2.5 ng/mL); experiment: as above; settings: 72 h
[26] = test system: KAI3 (IL-2 2.5 ng/mL); experiment: as above; settings: 72 h
[27] = test system: NK-YS (IL-2 2.5 ng/mL); experiment: as above; settings: 72 h
[28] = test system: NK-92 (IL-2 2.5 ng/mL); experiment: as above; settings: 72 h

COc1cc2c(Oc3ccc(NC(=O)C4(C(=O)Nc5ccc(F)cc5)CC4)cc3F)ccnc2cc1OCCCN1CCOCC1 [Foretinib] (max concentration tested 1000 nM)
Settings | drug sensitivity score
[1] | 5.37
[16] | 2.27
[17] | 0.32
[18] | 1.64
[19] | 5.21
[20] | 3.35
[21] | 1.19
[22] | 5
[23] | 4.1
[24] | 3.73
[25] | 0
[26] | 2.98
[27] | 5.79
[28] | 4.04

percent inhibition of viability [%]
Settings | 0.1 nM | 1 nM | 10 nM | 100 nM | 1000 nM
[2] | -1.08 | -15.3 | -7.01 | -4.86 | 49.9
[3] | -8.78 | -7.33 | 8.91 | 6.17 | 10.7
[4] | -6.29 | -10.2 | -1.31 | 3.45 | 27.1
[5] | 1.36 | -8.14 | -3.69 | 18.4 | 49.9
[6] | 3.24 | -0.68 | 2.22 | -8.07 | 70.8
[7] | 3.18 | -0.67 | 9.57 | 11.1 | 15.9
[8] | -12.1 | -16.5 | -5.45 | 16.3 | 49.9
[9] | -4.45 | 1.67 | 17.2 | 10.1 | 18.4
[10] | -1.93 | -8.62 | -2.43 | 13.9 | 37.3
[11] | -11.2 | -4.47 | 3.97 | -2.36 | -2.41
[12] | 3.99 | -0.1 | 0.67 | 11.6 | 31.7
[13] | -1.72 | -7.82 | -1.95 | 11.5 | 70.2
[14] | -17.3 | -12.3 | -5.79 | 19.9 | 34.9
[15] | -5.4 | -5.19 | -3.74 | 12.6 | 61

Nc1ccn([C@@H]2O[C@H](CO)[C@@H](O)C2(F)F)c(=O)n1 [Gemcitabine] (max concentration tested 1000 nM)
Settings | drug sensitivity score
[1] | 24.5
[16] | 25.1
[17] | 3.49
[18] | 30.6
[19] | 32.6
[20] | 23.7
[21] | 0.96
[22] | 38.4
[23] | 0.38
[24] | 17.4
[25] | 3.97
[26] | 27.6
[27] | 28.4
[28] | 31

percent inhibition of viability [%]
Settings | 0.1 nM | 1 nM | 10 nM | 100 nM | 1000 nM
[2] | 18.4 | 13.8 | 57.7 | 94.6 | 100
[3] | -9.85 | -6.72 | 16.8 | 12.6 | 38
[4] | -7.53 | 2 | 99.1 | 101 | 101
[5] | 2.22 | 12.5 | 101 | 105 | 105
[6] | -4.73 | -12.3 | 44.9 | 99.7 | 99.8
[7] | -2.78 | -14 | 4.7 | -1.17 | 26.4
[8] | -10.6 | 68.9 | 102 | 106 | 104
[9] | -12.2 | -40.4 | -21.2 | -27.6 | 23.4
[10] | 2.42 | -2.18 | 20.1 | 78.2 | 65
[11] | -12.2 | -6.97 | 19.6 | 14.7 | 29.7
[12] | -18.3 | 3.34 | 79.8 | 98.3 | 101
[13] | -3.23 | -1.72 | 87.7 | 97.1 | 101
[14] | -6.25 | 12.2 | 92.2 | 104 | 104
[15] | 1.65 | 34.8 | 55.6 | 74.6 | 88.2
